Numbering of substitutions follows the chain as printed.

We go through 1 molecule from paper PMC7574625 (ACS Catalysis, 2020).

In assay [1] the target is T1, LmrR A92Q (Lactococcus cremoris, UniProt A2RI36, A92Q).
T1 sequence (A2RI36 1-116 A92Q): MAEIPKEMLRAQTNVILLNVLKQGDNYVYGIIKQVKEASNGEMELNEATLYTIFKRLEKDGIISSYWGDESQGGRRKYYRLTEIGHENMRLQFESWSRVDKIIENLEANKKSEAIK
In words: binding affinity.

Assay [2] concerns the target T2, LmrR_A92E (Lactococcus cremoris, UniProt A2RI36, A92E).
T2 sequence (A2RI36 1-116 A92E): T1 sequence (A2RI36 1-116 A92Q) with Q92E
In words: binding affinity.

As to `[Cu+2].c1cnc2c(c1)ccc1cccnc12` [Cu(II)-phen], the Kd in assay [1] stood at 103 ± 41 nM; in assay [2], 65 ± 19 nM.
